{
  "source": "patent EP1311531B1",
  "about": "“STEROID DERIVED ANTIBIOTICS” (Brigham Young University, priority 2000, dated 2002)",
  "test_system": "Gram-negative bacteria",
  "assay": "MIC and permeabilization measurements, strain not stated (Table 14, Fig. 5)",
  "settings": "in words, text on Fig. 5",
  "data": [
    {"smiles": "C[C@H](CCCN)[C@H]1CC[C@H]2[C@@H]3[C@H](OCCCN)C[C@@H]4C[C@H](OCCCN)CC[C@]4(C)[C@H]3C[C@H](OCCCN)[C@]12C", "note": "[Compound 135]", "values": [
      {"measurement": "MBC", "value": "relatively high"},
      {"measurement": "MIC", "value": "relatively high"}
    ]}
  ]
}
